The values below come from patent US9603835B2, “Use of 3-(R)-[3-(2-methoxyphenylthio)-2-(S)-methylpropyl]amino-3,4-dihydro-2H-1,5-benzoxathiepine for treating cancer and in particular for preventing and/or treating cancer metastases” (PIERRE FABRE MEDICAMENT, priority 2011, dated 2017).

The nature of one data set: Cytotoxicity. The data set is classed as cell-based.
The target of data set [1] is T1, Nav1.5 voltage-gated sodium channels (Homo sapiens, UniProt Q14524).
T1 construct: said cells express, inter alia, functional Nav1.5 voltage-gated sodium channels; endogenous in cells; host or cells: MDA-MB-231
T1 sequence (Q14524 1-2016 isoform Q14524-4): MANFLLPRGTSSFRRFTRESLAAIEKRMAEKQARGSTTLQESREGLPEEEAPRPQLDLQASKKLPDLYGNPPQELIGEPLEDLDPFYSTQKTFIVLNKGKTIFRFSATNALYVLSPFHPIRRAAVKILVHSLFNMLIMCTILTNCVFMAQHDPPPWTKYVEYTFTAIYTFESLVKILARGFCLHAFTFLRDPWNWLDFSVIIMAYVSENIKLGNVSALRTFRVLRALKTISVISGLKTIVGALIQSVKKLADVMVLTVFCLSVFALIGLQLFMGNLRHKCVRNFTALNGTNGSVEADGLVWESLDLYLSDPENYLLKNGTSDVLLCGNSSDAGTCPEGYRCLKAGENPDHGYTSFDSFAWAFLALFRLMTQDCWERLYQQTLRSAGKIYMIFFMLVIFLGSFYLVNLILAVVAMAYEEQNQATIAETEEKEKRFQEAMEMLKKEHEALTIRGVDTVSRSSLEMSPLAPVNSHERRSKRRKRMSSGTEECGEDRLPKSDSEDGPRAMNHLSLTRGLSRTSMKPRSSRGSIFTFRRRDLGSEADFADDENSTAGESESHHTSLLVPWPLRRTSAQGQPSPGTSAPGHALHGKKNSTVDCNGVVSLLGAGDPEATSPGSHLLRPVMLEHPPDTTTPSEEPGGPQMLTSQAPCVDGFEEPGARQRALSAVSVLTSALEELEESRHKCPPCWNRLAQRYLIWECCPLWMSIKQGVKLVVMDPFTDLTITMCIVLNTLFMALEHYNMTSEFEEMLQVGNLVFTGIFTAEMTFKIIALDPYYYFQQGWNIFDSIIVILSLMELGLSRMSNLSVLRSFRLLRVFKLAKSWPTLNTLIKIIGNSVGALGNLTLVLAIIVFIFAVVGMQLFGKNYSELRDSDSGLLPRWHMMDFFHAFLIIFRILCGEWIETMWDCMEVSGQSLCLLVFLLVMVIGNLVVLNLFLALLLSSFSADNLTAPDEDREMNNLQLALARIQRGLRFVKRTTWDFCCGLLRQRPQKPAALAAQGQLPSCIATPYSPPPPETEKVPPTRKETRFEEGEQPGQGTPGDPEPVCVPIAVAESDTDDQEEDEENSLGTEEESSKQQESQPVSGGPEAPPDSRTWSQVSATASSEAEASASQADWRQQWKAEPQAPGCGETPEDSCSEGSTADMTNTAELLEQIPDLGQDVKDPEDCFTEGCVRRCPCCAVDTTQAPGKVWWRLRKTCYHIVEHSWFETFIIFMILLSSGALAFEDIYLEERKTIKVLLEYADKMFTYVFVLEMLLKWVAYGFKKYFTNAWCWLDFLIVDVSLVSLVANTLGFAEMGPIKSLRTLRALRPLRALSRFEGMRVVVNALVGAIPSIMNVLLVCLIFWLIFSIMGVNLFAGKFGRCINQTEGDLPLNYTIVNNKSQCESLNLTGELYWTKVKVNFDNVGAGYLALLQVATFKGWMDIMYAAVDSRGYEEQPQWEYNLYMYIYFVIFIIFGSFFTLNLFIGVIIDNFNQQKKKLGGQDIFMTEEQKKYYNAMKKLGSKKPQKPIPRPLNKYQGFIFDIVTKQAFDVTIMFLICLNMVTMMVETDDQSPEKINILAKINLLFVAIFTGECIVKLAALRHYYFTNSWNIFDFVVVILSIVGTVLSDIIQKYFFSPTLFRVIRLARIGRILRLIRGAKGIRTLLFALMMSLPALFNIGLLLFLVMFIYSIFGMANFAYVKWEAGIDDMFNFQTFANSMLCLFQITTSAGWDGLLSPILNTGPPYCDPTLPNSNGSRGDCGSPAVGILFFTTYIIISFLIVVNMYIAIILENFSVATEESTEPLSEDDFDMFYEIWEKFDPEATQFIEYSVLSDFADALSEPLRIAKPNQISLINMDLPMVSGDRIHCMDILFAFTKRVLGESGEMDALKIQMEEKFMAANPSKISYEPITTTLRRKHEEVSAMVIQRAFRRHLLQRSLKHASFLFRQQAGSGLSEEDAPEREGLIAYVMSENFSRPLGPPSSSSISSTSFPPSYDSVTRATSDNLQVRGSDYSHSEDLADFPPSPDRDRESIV
As to the kind of experiment: Whole-cell patch-clamp, repeated depolarisation protocol, MDA-MB-231 cells. The data set is classed as cell-based. From the text: Merely as an illustration, the inventors chose to use the MDA-MB-231 line, which is a highly metastatic human mammary adenocarcinoma line, in the experiment. […] However, the pharmacological tools in question are not suitable for precise characterisation of the nature of the Nav1.5 sodium current involved in the metastatic process. […] For this reason, the inventors consider that 3-(R)-[3-(2-methoxyphenylthio)-2-(S)-methyl-propyl]amino-3,4-dihydro-2H-1,5-benzoxathiepine has anti-metastatic properties in relation to cancer cells expressing the Nav1.5 channel. As such, it is important to note that numerous types of metastatic cancer have been reported as expressing the Nav1.5 channel.
Cell culture: the MDA-MB-231 cells are cultured in a Dulbecco's modified Eagle's medium, (Life Technologies LTD, Paisley, UK) supplemented with 4 mM L-glutamine and 10% foetal calf serum. The cells are inoculated in 100 mm culture dishes and placed in an incubator at 37° C., 100% moisture and 5% CO2.
Electrophysiological measurements in “whole cell” configuration: the patch pipette (resistance 5-15 MΩ) contains a solution of: 5 mM NaCl, 145 mM CsCl, 2 mM MgCl2, 1 mM CaCl2, 10 mM HEPES and 11 mM EGTA, the pH is adjusted to 7.4 with CsOH. The reference electrode is immersed in the extracellular medium consisting of a solution of: 140 mM NaCl, 4 mM KCl, 2 mM MgCl2, 11 mM glucose, 10 mM HEPES, the pH is adjusted to 7.4 with NaOH. These two electrodes are connected to an Axopatch 200B amplifier (Axon Instrument). The currents are filtered using a Bessel filter at a frequency of 5 kHz and are sampled at a frequency of 5 kHz using the Digidata interface (1200). The data acquisition and analysis are performed using pClamp software (Axon Instrument). The holding potential is set to −110 mV to record the maximum Nav channel activity.
Two protocols were used: • 1/ “Voltage-dependent current INa” protocol for observing the maximum amplitude of INa according to the voltage applied. Depolarisations in 5 mV stages are performed at a frequency of 0.2 Hz, from −110 to +60 mV. […]

Data set [2] can be described thus: In vivo effect on normal cardiac function. Conditions: even at high doses.

Structures are written as SMILES.

A word on the IC50: it is the midpoint of a concentration-inhibition curve. As to `COc1ccccc1SC[C@@H](C)CN[C@@H]1COc2ccccc2SC1` [3-(R)-[3-(2-methoxyphenylthio)-2-(S)-methyl-propyl]amino-3,4-dihydro-2H-1,5-benzoxathiepine], the cytotoxicity result in the data set “Cytotoxicity” is “not cytotoxic”. Besides, the IC50 in data set [1] (MDA-MB-231 cells, whole cell patch-clamp, concentration-dependent, read-out: reduction of the metastatic Nav1.5 current (IC50)) stood at 1500 nM. Besides, the “interference with normal cardiac function” value in data set [2] is reported as “does not interfere with normal cardiac function”.

For the compound `NC1=N[C@H](O)[C@H]2[C@H]3O[C@]4(O)O[C@@H]([C@@H](O)[C@@]2(N1)[C@@H]4O)[C@]3(O)CO` [tetrodotoxin], the peak current inhibition worked out at 30±7% in data set [1] (1 µM) and 54±8% in data set [1] (5 µM).
